Experimental data reported in patent publication US20130274185A1, “Pharmaceutical for Pseudo-Exercise Therapy” (THE UNIVERSITY OF TOKYO, priority 2010, published 2013).

Tests used:
muscle-R1KO mice [1] = assay: Increased calcium influx experiment (Bay-K 8644 hydrogel) in muscle-R1KO mice; type: in vivo; conditions: 0.25 μM Bay-K 8644
AMPK = AMPK phosphorylation in C2C12 myocytes; type: cell-based, mouse; conditions: C2C12; for effect on adiponectin-induced increased AMPK phosphorylation: preincubation 5 mM EGTA 20 min, 50 μM BAPTA-AM 30 min or 10 μM U73122 30 min, then adiponectin 30 μg/ml 5 min
Experimental: (§1) The mouse C2C12 myoblasts were grown in 90% Dulbecco's modified high glucose Eagle's medium containing 10% (v/v) fetal bovine serum. When the cells reached 80% confluent, the myoblasts were induced to differentiate into myocytes by replacing the medium with a low serum differentiation medium (98% Dulbecco's modified high glucose Eagle's medium, 2.5% (v/v) horse serum). The medium was changed daily. The C2C12 cells were transfected by using Pofectamine 2000 (Invitrogen) and following the manufacturer's instructions.

C2C12 myocytes [2] = assay: Mitochondrial content assay in C2C12 myocytes; type: cell-based, mouse; conditions: C2C12; preincubation AraA 0.5 mM 1 hr or STO-609 1 μg/ml 6 hr, then 10 μg/ml adiponectin 48 hr
Experimental: as §1
Mitochondrial content assays were carried out as described in the following document (Cell Metab. 4, 75-87 (2006)), with slight modifications. Quantification of the mitochondrial content was conducted by using mtDNA and MitoTracker Green probe (Molecular Probes) according to the method as described in the following document (Obes. Res. 13, 574-581 (2005)). MitoTracker Green probe preferentially accumulates in mitochondria regardless of the mitochondrial membrane potential and provides an accurate assessment of mitochondrial mass. Cells were washed with PBS and after addition of 100 nM MitoTracker Green FM (Molecular Probes), incubated at 37° C. for 30 min. Cells were harvested by using trypsin/EDTA and resuspended in PBS. Fluorescence intensity was detected with excitation and emission wavelengths of 490 and 516 nm, respectively, and the values thus measured were corrected for total protein (mg/ml).

PGC-1α (Ppargc1a) = PGC-1α (Ppargc1a) expression in C2C12 myocytes; type: cell-based, mouse; conditions: C2C12; preincubation AraA 0.5 mM 1 hr, STO-609 1 μg/ml 6 hr or EGTA 5 mM 20 min, then adiponectin 10 μg/ml 1.5 hr
Experimental: Real-time PCR was carried out according to the method described in the following documents (Nature Med. 13, 332-339 2007); Nature 423, 762-769 (2003); J. Biol. Chem. 281, 8748-8755 (2006)). Total RNA was prepared from cells or tissues by using Trizol (Invitrogen) according to the manufacturer's instructions. Quantification of mRNA was conducted using a real-time PCR method (Nature 423, 762-769 (2003)) with slight modifications. The procedures used for immunoblotting are described in the following documents (Nature Med. 7, 941-946 (2001); J. Biol. Chem. 281, 26602-26614 (2006); J. Biol. Chem. 281, 8748-8755 (2006)). The livers or muscles were freeze-clamped in liquid nitrogen in situ (Nature Med. 7, 941-946 (2001); J. Biol. Chem. 281, 26602-26614 (2006); J. Biol. Chem. 281, 8748-8755 (2006)).
as §1

muscle-R1KO mice [3] = assay: Treatment of muscle-R1KO mice with AICAR, resveratrol or MnTBAP; type: in vivo; conditions: AICAR 500 mg per kg body weight, 2 hours
Experimental: Mitochondrial content assays were carried out as described in the following document (Cell Metab. 4, 75-87 (2006)), with slight modifications. Quantification of the mitochondrial content was conducted by using mtDNA and MitoTracker Green probe (Molecular Probes) according to the method as described in the following document (Obes. Res. 13, 574-581 (2005)). MitoTracker Green probe preferentially accumulates in mitochondria regardless of the mitochondrial membrane potential and provides an accurate assessment of mitochondrial mass. Cells were washed with PBS and after addition of 100 nM MitoTracker Green FM (Molecular Probes), incubated at 37° C. for 30 min. […] Fluorescence intensity was detected with excitation and emission wavelengths of 490 and 516 nm, respectively, and the values thus measured were corrected for total protein (mg/ml).
Oral glucose tolerance test (OGTT) and insulin tolerance test (ITT) were conducted by the method described in the following documents (Nature Med. 8, 1288-1295 (2002); Nature Med. 7, 941-946 (2001)), with some modifications. The areas of the glucose and insulin curves were calculated, respectively, by multiplying the cumulative mean height of the glucose values (1 mg/ml=1 cm) and insulin values (1 ng/ml=1 cm) by time (60 min=1 cm) (Nature Med. 13, 332-339 (2007); Nature Med. 7, 941-946 (2001)). […]

AdipoR1 = molecular target: T1, AdipoR1 (Mus musculus, UniProt Q91VH1); assay: Electrophysiological recording in Xenopus oocytes expressing AdipoR1; type: cell-based; conditions: oocytes expressing AdipoR1, 5 mM EGTA
T1 construct: expressed in transfected cells; host or cells: Xenopus oocytes (stage V to VII), cRNA synthesized from linearized modified pSPUTK
T1 sequence (Q91VH1 1-375): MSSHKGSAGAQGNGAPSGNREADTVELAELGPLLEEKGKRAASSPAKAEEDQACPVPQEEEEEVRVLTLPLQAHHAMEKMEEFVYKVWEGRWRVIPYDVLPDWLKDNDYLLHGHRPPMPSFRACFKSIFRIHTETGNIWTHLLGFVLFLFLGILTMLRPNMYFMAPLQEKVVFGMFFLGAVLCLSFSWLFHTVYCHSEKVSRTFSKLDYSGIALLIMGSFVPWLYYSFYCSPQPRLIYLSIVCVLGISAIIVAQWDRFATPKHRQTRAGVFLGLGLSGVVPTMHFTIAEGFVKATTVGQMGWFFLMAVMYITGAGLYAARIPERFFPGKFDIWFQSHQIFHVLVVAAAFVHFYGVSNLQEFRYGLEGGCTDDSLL
Experimental: Stage V to VII oocytes were treated with 2 mg/ml of collagenase S-1 (Nitta gelatin) in calcium ion-free saline solution (82.5 mM NaCl, 2 mM KCl, 1 mM MgCl2, and 5 mM HEPES, pH 7.5) for 1 to 2 hr at room temperature. The resulting oocytes were then microinjected with 50 ng of cRNA for mAdipoR1. The cRNA was synthesized from linearized modified pSPUTK. The injected oocytes were incubated for 3 days at 18° C. in a bath solution (88 mM NaCl, 1 mM KCl, 0.3 mM Ca(NO3)2, 0.4 mM CaCl2, 0.8 mM MgSO4, 2.4 mM […], 15 mM HEPES, pH 7.6) supplemented with 10 μg/ml of penicillin and streptomycin.
Whole cell currents were recorded with a two-electrode voltage clamp technique. Intracellular glass electrodes were filled with 3M KCl. Signals were amplified with an OC-725C amplifier (Warner Instruments), low-pass filtered at 50 Hz, and digitized at 1 kHz. A control bath solution contained 115 mM NaCl, 2.5 mM KCl, 1.8 mM CaCl2, and 10 mM HEPES. It was titrated to pH 7.2 with NaOH. A calcium ion free solution containing 1.8 mM BaCl2 instead of CaCl2 was used. The inward current was monitored at a holding potential of −80 mV. Calcium ion activated Cl^− current was monitored by applying 500-mscc depolarizing pulses of +100 mV and +50 mV from the holding potential of −80 mV. Adiponectin was supplied to the superfusing bath solution via a silicon tube connected to computer-driven solenoid valves. Data acquisition and analysis were carried out using Digidata 1322A and pCLAMP software.

C2C12 myocytes [4] = assay: Calcium imaging in C2C12 myocytes (fura-2); type: cell-based, mouse
Experimental: C212 myocytes cultured on glass base dishes (IWAKI) were treated with 2.5 μM fura-2/AM for 30 min. Fluorescence was measured with an Aquacosmos Calcium Imaging system (Hamamatsu Photonics). Ligands were delivered through the superfusing Ringer's solution (140 mM NaCl, 5.6 mM KCl, 5 mM HEPES, 2.0 mM sodium pyruvate, 1.25 mM KH2PO4, 2.0 mM CaCl2, 2.0 mM MgCl2, 9.4 mM D-glucose (pH 7.4)). For the calcium chelating experiment, EGTA solution (140 mM NaCl, 5.6 mM KCl, 5 mM HEPES, 2.0 mM sodium pyruvate, 1.25 mM KH2PO4, 2.0 mM MgCl2, 5.0 mM EGTA-2Na, 9.4 mM D-glucose (pH 7.4) was used for the bath solution. Fura-2 fluorescence ratios were calibrated to calcium ion signals.

CaMKI = CaMKI phosphorylation in C2C12 myocytes; type: cell-based, mouse; conditions: EGTA 5 mM
Experimental: as §1

COC(=O)C1=C(C)NC(C)=C([N+](=O)[O-])C1c1ccccc1C(F)(F)F (centres unmarked) [Bay-K 8644]
CaMKKβ activity (phosphorylation of CaMKI) in skeletal muscle (muscle-R1KO mice [1]): increase in CaMKKβ activity

CC(=O)OCOC(=O)CN(CC(=O)OCOC(C)=O)c1ccccc1OCCOc1ccccc1N(CC(=O)OCOC(C)=O)CC(=O)OCOC(C)=O [BAPTA-AM, Bis-(o-aminophenoxy)ethane-N,N,N9,N9-tetra-acetic acid, tetraacetoxymethyl ester]
effect on adiponectin-induced increased AMPK phosphorylation (AMPK): partially suppressed

Nc1ncnc2c1ncn2[C@@H]1O[C@H](CO)[C@@H](O)[C@@H]1O [AraA, reference compound]
effect on the adiponectin-induced increase in mitochondrial biogenesis (C2C12 myocytes [2]): almost completely abolished
effect on PGC-1α expression induced by adiponectin (PGC-1α (Ppargc1a)): only tended to decrease

O=C(O)c1ccc2c3c1cccc3c(=O)n1c3ccccc3nc21 [STO-609, reference compound]
effect on the adiponectin-induced increase in mitochondrial biogenesis (C2C12 myocytes [2]): almost completely abolished
effect on PGC-1α expression induced by adiponectin (PGC-1α (Ppargc1a)): effectively and almost completely abolished

NC(=O)c1ncn([C@@H]2O[C@H](CO)[C@@H](O)[C@H]2O)c1N [AICAR, 5-aminoimidazole-4-carboxamide-1-β-D-libocide]
phosphorylation of AMPK in muscle (muscle-R1KO mice [3]): significantly increased

O=C(O)CN(CCOCCOCCN(CC(=O)O)CC(=O)O)CC(=O)O [EGTA, reference compound]
effect on adiponectin-induced inward current responses (AdipoR1): almost completely abolishes
effect on calcium-ion activated Cl- current responses to adiponectin (AdipoR1): almost completely abolished
effect on phosphorylation of AMPK induced by AICAR (AMPK; 5 mM EGTA, AICAR 1 mM 1 hr): had no effect
effect on ionomycin-dependent phosphorylation of AMPK (AMPK; 5 mM EGTA, ionomycin 1 μM 5 min): almost completely abolished
effect on adiponectin-induced increased AMPK phosphorylation (AMPK): partially suppressed
effect on adiponectin-induced calcium ion response (C2C12 myocytes [4]; 5 mM EGTA): almost completely abolished
effect on ATP-induced intracellular calcium ion release (C2C12 myocytes [4]; EGTA): had no effect
effect on PGC-1α expression induced by adiponectin (PGC-1α (Ppargc1a)): effectively and almost completely abolished
effect on increased CaMKI phosphorylation stimulated with adiponectin (CaMKI): almost completely abolished

COc1ccc2c(c1)CC[C@@H]1[C@@H]2CC[C@]2(C)[C@@H](NCCCCCCN3C(=O)C=CC3=O)CC[C@@H]12 [U73122]
effect on adiponectin-induced increased AMPK phosphorylation (AMPK): had little effect
